Results as given in US7943603B2, “Medical uses of a selective estrogen receptor modulator in combination with sex steroid precursors” (Endorecherche, Inc., priority 1998, dated 2011).
“Also recorded” adds a separate entry of the source.

Experiments:
ovariectomized rats [1] = settings: treatment with 5-diol
[2] = tested on: DMBA-induced mammary carcinoma; assay: Development of DMBA-induced mammary carcinoma in the rat; assay type: in vivo; settings: 279 days after DMBA
Protocol: (§1) Female Sprague-Dawley rats [Crl:CD(SD)Br] were obtained at 44-46 days of age from Charles River Canada Inc. (St. Constant, Quebec) and housed 2 per cage in a light (12 h light/day; lights on at 07:15 h)-and temperature (22±2° C.)-controlled environment. Animals received Purina rodent chow and tap water ad libitum. The animal studies were conducted in a Canadian Council on Animal Care (CCAC)-approved facility in agreement with the CCAC Guide for Care and Use of Experimental Animals.
Mammary carcinomas were induced by a single intragastric administration of 20 mg of DMBA (Sigma Chemical Co., St. Louis, Mo.) in 1 ml of corn oil at 50-52 days of age. Two months later, tumor measurement was performed biweekly. The two largest perpendicular diameters of each tumor were recorded with calipers to estimate tumor size as described (Asselin et al., Endocrinology 101: 666-671, 1977). Tumor site, size and number were recorded.
(§2) The animals were randomly divided into groups each containing 20 rats with the exception of 40 animals in the control group. […] Treatment was initiated 3 days before the oral administration of DMBA. EM-800 was synthesized in the Medicinal Chemistry Division of our laboratory while DHEA was purchased from Steraloids Inc., Wilton, N.H.
Many of the control animals and some of EM-800- or DHEA-treated animals were sacrificed by cervical dislocation under isoflurane-induced anesthesia 6 months after DMBA administration because of the too large size of tumors. The values of tumor size and number of these rats at sacrifice, together with those measured at later time intervals from the surviving animals, were used for the later analysis of the incidence of tumors, average tumor number per tumor-bearing rat and average tumor size per tumor-bearing animal. […] Rats were sacrificed 279 days after DMBA administration.
Statistical significance was measured according to the multiple range test of Duncan-Kramer (Biometrics 12: 307-310, 1956). Analysis of the incidence of development of mammary tumors was performed using the Fisher's exact test (Conover, Practical nonparametric statistics, 2nd Edition 153-170, 1980). The data are presented as means±S.E.M.

female rat = assay: Bone mineral density (DEXA) after 9-month treatment; assay type: in vivo; settings: DHEA 10 mg percutaneously, EM-800 75 μg orally, once daily, alone or in combination, 9 months
Protocol: as §1, §2
Rats were anesthetized with an i.p. injection of ketamine hydrochloride and diazepam at doses of 50 and 4 mg/kg B.W., respectively. The whole skeleton and the right femur were scanned using dual energy X-ray absorptiometry (DEXA; QDR 2000-7.10C, Hologic, Waltham, Mass.) equipped with a Regional High Resolution software. The scan field sizes were 28.110×17.805 cm and 5.0×1.902 cm, the resolutions were 0.1511×0.0761 cm and 0.0254×0.0127 cm, while the scan speeds were 0.3608 and 0.0956 mm/sec for total skeleton and femur, respectively. Both bone mineral content (BMC) and bone mineral density (BMD) of total skeleton, lumbar spine, and femur were measured on the scan images of total skeleton and femur.

rat [3] = assay: Urine and serum biochemical parameters of bone metabolism; assay type: in vivo; settings: DHEA 10 mg percutaneously, EM-800 75 μg orally, once daily, alone or in combination, 9 months
Description: as §2
(§3) Twenty-four-hour urinary samples were collected at the end of the experiment from the first 9 rats of each group following transfer in metabolic cages (Allentown Caging Equipment Co., Allentown, N.J.). Two urinary samples were collected and analyzed on different days for each animal in order to minimize the influence of daily variation. Therefore, each value shown represents the mean of the two measurements performed on two different days. 0.5 ml of toluene was added into the urine collecting tubes to prevent urine evaporation and bacterial growth and the urinary volume was recorded. Trunk blood was collected at sacrifice and was allowed to clot at 4° C. overnight before centrifugation at 3000 rpm for 30 min.
(§4) Fresh samples were used for the assay of urinary creatinine, calcium, and phosphorus as well as serum total alkaline phosphatase (tALP) activity, cholesterol and triglycerides. These biochemical parameters were measured automatically with a Monarch 2000 Chemistry System (Instrumentation Laboratory Co. Lexington, Mass.) under Good Laboratory Practice conditions. Urinary hydroxyproline was measured as described (Podenphant et al., Clinica Chimica Acta 142: 145-148, 1984).

rat [4] = assay: Serum triglyceride and cholesterol levels after 9-month treatment; assay type: in vivo; settings: DHEA 10 mg percutaneously, EM-800 75 μg orally, once daily, alone or in combination, 9 months
Description: as §2, §3, §4

[5] = tested on: ovariectomized (OVX) nude mice supplemented with estrone; assay: Uterine, vaginal and body weight in OVX nude mice bearing ZR-75-1 xenografts; settings: OVX+E1 nude mice
Protocol: A posteriori pairwise comparisons were performed using Fisher's test for least significant difference. Main effects and the interaction of treatments on body weight and organ weight were analyzed using a standard two-way ANOVA with interactions. All ANOVAs were performed using SAS program (SAS Institute, Cary, N.C., USA). Significance of differences were declared using a 2-tailed test with an overall level of 5%.

ovariectomized rats [6] = assay: Bone histomorphometry of tibia after 12-month treatment of ovariectomized rats; assay type: in vivo, rat; settings: 12 months, histology
Protocol: Intact animals are added as additional controls. Data are presented as mean±SEM **p<0.01 versus OVX Control.
Modified trichrome Masson-Goldner, magn. ×80. T: Trabeculae, GP: Growth Plate.

[7] = Example 5 table: serum, urinary and GnRH mRNA parameters in OVX groups; assay type: in vivo; settings: doses not given; for LH: LD: Limit of Detection: 0.01 ng/ml
[8] = aged Sprague-Dawley rats; reduced from 600 g, food intake unaffected; cited from earlier work
[9] = tested on: human ZR-75-1 breast tumor xenografts; assay: Growth of human ZR-75-1 breast tumor xenografts in OVX nude mice supplemented with estrone; settings: 9.5 months
estrogen receptor = target: T1, estrogen receptor (Homo sapiens, UniProt P03372); assay: Testing of antiestrogens for function as SERM
T1 sequence (P03372 1-595): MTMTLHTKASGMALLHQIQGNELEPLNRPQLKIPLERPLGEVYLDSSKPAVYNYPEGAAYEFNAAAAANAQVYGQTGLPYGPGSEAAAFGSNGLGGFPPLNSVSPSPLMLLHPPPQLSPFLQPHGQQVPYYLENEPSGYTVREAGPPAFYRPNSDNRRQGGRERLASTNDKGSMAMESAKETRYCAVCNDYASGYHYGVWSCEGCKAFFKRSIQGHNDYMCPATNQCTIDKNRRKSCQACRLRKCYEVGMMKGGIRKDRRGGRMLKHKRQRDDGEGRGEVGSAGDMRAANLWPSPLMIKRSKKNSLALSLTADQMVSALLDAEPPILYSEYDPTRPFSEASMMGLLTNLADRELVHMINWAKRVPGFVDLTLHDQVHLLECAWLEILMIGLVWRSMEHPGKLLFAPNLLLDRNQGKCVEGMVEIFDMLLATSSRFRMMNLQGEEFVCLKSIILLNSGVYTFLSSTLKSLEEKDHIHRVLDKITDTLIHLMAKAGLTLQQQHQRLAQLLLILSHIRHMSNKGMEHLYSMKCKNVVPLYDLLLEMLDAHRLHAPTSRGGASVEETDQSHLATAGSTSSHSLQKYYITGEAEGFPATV

Solid state stability = assay type: physicochemical
postmenopausal women = settings: cited from earlier work
[10] = DHEA 0.3 mg percutaneously, alone or with EM-800 15 μg, OVX+E1 0.5 μg nude mice
[11] = DHEA 1.0 mg percutaneously, alone or with EM-800 15 μg, OVX+E1 0.5 μg nude mice
[12] = DHEA 3.0 mg percutaneously, alone or with EM-800 15 μg, OVX+E1 0.5 μg nude mice
[13] = E1 0.5 μg s.c. daily alone, OVX nude mice

C[C@]12CC[C@H]3[C@@H](CC=C4C[C@@H](O)CC[C@@]43C)[C@@H]1CC[C@@H]2O [5-diol, androst-5-ene-3β,17β-diol]
serum alkaline phosphatase activity (ovariectomized rats [1]): marked stimulation

C[C@]12CC[C@H](O)CC1=CC[C@@H]1[C@@H]2CC[C@]2(C)C(=O)CC[C@@H]12 [DHEA, dehydroepiandrosterone]
incidence of DMBA-induced mammary carcinoma (animals with palpable tumors) ([2]; DHEA 10 mg percutaneously, EM-800 75 μg orally, once daily, control 95%): 57% | average tumor number per tumor-bearing animal ([2]; end of experiment, DHEA 10 mg, EM-800 75 μg daily, control 4.7±0.5): 3.4±0.7 tumors/animal | average tumor area per tumor-bearing animal ([2]; end of experiment, DHEA 10 mg, EM-800 75 μg daily, control 12.8±1.3): 10.2±2.1 cm^2 | BMD FEMUR (female rat): 0.3408 ± 0.0038 g/cm2 | BMD LUMBAR SPINE (female rat): 0.2163 ± 0.0049 g/cm2 | BMD TOTAL SKELETON (female rat): 0.1465 ± 0.0010 g/cm2 | increase in BMD of femur versus control (female rat): 8.2% | increase in BMD of lumbar spine versus control (female rat): 10.6% | increase in BMD of total skeleton versus control (female rat): 6.9% | decrease of daily urinary calcium excretion versus control (rat [3]): no effect | decrease of daily urinary phosphorus excretion versus control (rat [3]): no effect | decrease of urinary hydroxyproline/creatinine ratio versus control (rat [3]): no effect; also recorded: did not affect; also recorded: did not show any effect | decrease of serum cholesterol levels (rat [4]): unaffected | decrease of serum triglyceride levels (rat [4]): 60% | effect of addition of DHEA on estrone-stimulated vaginal weight ([5]; DHEA 0.3, 1.0 or 3.0 mg): no significant effect | effect on body weight adjusted for tumor weight ([5]; 9.5 months): No significant effect | effect on trabecular bone volume of proximal tibia metaphysis (FIG. 8) (ovariectomized rats [6]): significant increase in trabecular bone volume | GnRH mRNA levels silver grains per cell [7]: 34.5 ± 0.7 silver grains per cell | Triglycerides [7]: 0.8 ± 0.1 mmol/L | Urinary OH-proline/creatinin [7]: 7.3 ± 1.0 μmol/mmol | LH [7]: 0.02 ± 0.01 ng/mL | body weight [8]: 550 g | Complete response, (%) [9, 10]: 28.6% | Complete response, number [9, 10]: 4 | Partial response, (%) [9, 10]: 0 (0) % | Partial response, number [9, 10]: 0 (0) | Progression, (%) [9, 10]: 50.0% | Progression, number [9, 10]: 7 | Stable response, (%) [9, 10]: 21.4% | Stable response, number [9, 10]: 3 | Complete response, (%) [9, 11]: 26.7% | Complete response, number [9, 11]: 4 | Partial response, (%) [9, 11]: 0 (0) % | Partial response, number [9, 11]: 0 (0) | Progression, (%) [9, 11]: 53.3% | Progression, number [9, 11]: 8 | Stable response, (%) [9, 11]: 20.0% | Stable response, number [9, 11]: 3 | Complete response, (%) [9, 12]: 20.0% | Complete response, number [9, 12]: 3 | Partial response, (%) [9, 12]: 0 (0) % | Partial response, number [9, 12]: 0 (0) | Progression, (%) [9, 12]: 66.7% | Progression, number [9, 12]: 10 | Stable response, (%) [9, 12]: 13.3% | Stable response, number [9, 12]: 2

C[C@]12CCC(=O)C[C@@H]1CC[C@@H]1[C@@H]2CC[C@]2(C)[C@@H](O)CC[C@@H]12 [DHT]
Cholesterol [7]: 2.44 ± 0.16 mmol/L | GnRH mRNA levels silver grains per cell [7]: 38.8 ± 0.7 silver grains per cell | Serum Alkaline phosphatase [7]: 56 ± 5 IU/L | Triglycerides [7]: 0.9 ± 0.1 mmol/L | Urinary OH-proline/creatinin [7]: 7.8 ± 0.7 μmol/mmol | LH [7]: 1.55 ± 0.27 ng/mL

CC/C(=C(/c1ccc(OCCN(C)C)cc1)c1cccc(O)c1)c1ccccc1 [Droloxifene]
function as SERM (estrogen receptor): found to function as SERMs

C[C@]12CC[C@@H]3c4ccc(O)cc4CC[C@H]3[C@@H]1CC[C@@H]2O [E2, 17β-estradiol]
Cholesterol [7]: 2.02 ± 0.15 mmol/L | GnRH mRNA levels silver grains per cell [7]: 40.4 ± 0.8 silver grains per cell | Serum Alkaline phosphatase [7]: 41 ± 5 IU/L | Triglycerides [7]: 0.8 ± 0.1 mmol/L | Urinary OH-proline/creatinin [7]: 9.2 ± 0.9 μmol/mmol | LH [7]: 2.37 ± 0.45 ng/mL

CC1=C(c2ccc(O)cc2)[C@H](c2ccc(OCCN3CCCCC3)cc2)Oc2cc(O)ccc21.Cl [EM-01538, (S)-(+)-7-hydroxy-3-(4′-hydroxyphenyl)-4-methyl-2-(4″-(2′″-piperidinoethoxy)phenyl)-2H-1-benzopyran hydrochloride]
solid state stability (Solid state stability): good solid state stability

C[C@]12CC[C@@H]3c4ccc(O)cc4C[C@@H](CCCCCCCCC[S+]([O-])CCCC(F)(F)C(F)(F)F)[C@H]3[C@@H]1CC[C@@H]2O (some centres unmarked) [ICI 182,780]
function as SERM (estrogen receptor): found not to function as SERMs

CC(=O)O[C@]1(C(C)=O)CC[C@H]2[C@@H]3C[C@H](C)C4=CC(=O)CC[C@]4(C)[C@H]3CC[C@@]21C [MPA]
Cholesterol [7]: 2.55 ± 0.14 mmol/L | GnRH mRNA levels silver grains per cell [7]: 35.5 ± 0.7 silver grains per cell | Serum Alkaline phosphatase [7]: 57 ± 4 IU/L | Triglycerides [7]: 1.3 ± 0.1 mmol/L | Urinary OH-proline/creatinin [7]: 11.7 ± 1.2 μmol/mmol | LH [7]: 2.51 ± 0.20 ng/mL

C[C@]12CC[C@@H]3c4ccc(O)cc4CC[C@H]3[C@@H]1CCC2=O [estrone]
Complete response, (%) [9, 13]: 0% | Complete response, number [9, 13]: 0 (0) | Partial response, (%) [9, 13]: 0 (0) % | Partial response, number [9, 13]: 0 (0) | Progression, number [9, 13]: 14 | Stable response, (%) [9, 13]: 12.5% | Stable response, number [9, 13]: 2 | Complete response, (%) ([9]; E1 0.5 μg s.c. daily alone, OVX nude mice, listed as E1): 0 (0) %

C[C@]12CC[C@H]3[C@@H](CCC4=CC(=O)CC[C@@H]43)[C@@H]1CC[C@@H]2O [nandrolone]
patients with androgenic side-effects (postmenopausal women): 50%
